Data reported in paper PMC7801526, “Cryo-EM structure of Helicobacter pylori urease with an inhibitor in the active site at 2.0 Å resolution” (Nature Communications, 2021).

How the values were obtained:
[1] = target: T1, urease, catalytic subunit UreB (Helicobacter pylori, UniProt P69996); test: cryo-EM structure at […] Å; phenol red assay on purified urease (IC50 […], Ki by Cheng-Prusoff); assay type: biochemical
T1 construct: with UreA

[2] = target: T1, urease, catalytic subunit UreB; test: phenol red assay on purified urease (IC50 […], Ki by Cheng-Prusoff); assay type: biochemical

T1 sequence (P69996 whole entry): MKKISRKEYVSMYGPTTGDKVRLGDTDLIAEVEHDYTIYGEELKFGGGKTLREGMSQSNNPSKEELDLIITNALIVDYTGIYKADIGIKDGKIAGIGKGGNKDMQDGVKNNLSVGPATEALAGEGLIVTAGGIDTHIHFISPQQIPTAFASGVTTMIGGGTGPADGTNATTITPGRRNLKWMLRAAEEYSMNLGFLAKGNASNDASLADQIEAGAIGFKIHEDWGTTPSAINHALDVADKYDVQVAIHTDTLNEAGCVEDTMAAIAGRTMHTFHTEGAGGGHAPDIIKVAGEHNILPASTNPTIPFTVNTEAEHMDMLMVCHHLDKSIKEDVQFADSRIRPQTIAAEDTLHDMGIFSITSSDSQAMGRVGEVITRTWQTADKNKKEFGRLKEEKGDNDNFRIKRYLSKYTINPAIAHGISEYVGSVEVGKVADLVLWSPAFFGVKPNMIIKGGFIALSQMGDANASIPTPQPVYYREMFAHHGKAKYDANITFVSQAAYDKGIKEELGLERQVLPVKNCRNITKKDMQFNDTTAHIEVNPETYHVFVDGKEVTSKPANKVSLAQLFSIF
T1 sequence (P14916 whole entry, further chain): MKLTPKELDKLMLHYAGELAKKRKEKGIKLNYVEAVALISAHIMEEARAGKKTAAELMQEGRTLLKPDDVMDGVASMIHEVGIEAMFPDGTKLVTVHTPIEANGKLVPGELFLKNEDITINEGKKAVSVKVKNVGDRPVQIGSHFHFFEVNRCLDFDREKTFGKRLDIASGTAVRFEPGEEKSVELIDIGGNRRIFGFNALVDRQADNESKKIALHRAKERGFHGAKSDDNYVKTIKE

Structure (SMILES)	Ki [1]	Ki [2]
OCCS [BME, β-mercaptoethanol]	435 µM	
Cc1cc(C)cc(-n2ccnc2SCC(=O)NO)c1 [SHA, 2-{[1-(3,5-dimethylphenyl)-1H-imidazol-2-yl]sulfanyl}-N-hydroxyacetamide]		0.63 µM
